Measured values as given in patent US6486161B1, “Use of rifamycin derivative for treating mastitis in a domestic animal” (priority 2000, dated 2002).
Values after ≈ are worked out from the molar mass of the structure shown. Like-named read-outs stand apart in the source and are kept apart here.

Experiments:
[1] = tested on: Staphylococcus aureus 9203; assay: S. aureus intracellular killing assay in bovine PMN; assay type: cell-based; conditions: overnight incubation (18 to 21 hours)
Experimental: The therapeutic effect of the rifamycin derivative (1) was determined by S. aureus intracellular killing assay in bovine polymorphonuclear neutrophil (PMN).
The procedure for PMN isolation was as described in Carlton et al. (Proc. Soc. Exp. Biol. Med. 142: 853-858 (1973)).
Bovine blood collected by venipuncture in 50-ml syringes containing 1.5% EDTA (pH 6.8) was centrifuged at 1,000×g for 25 min. The plasma-buffer layer and the top few millileters were discarded. The packed erythrocyte fraction was pooled in 0.8% NaCl-phosphate buffer (pH 6.8) and 10 ml was placed in 20 ml of sterile water for 40 seconds to lyse the erythrocytes. Immediately thereafter, 10 ml of a 2.7% NaCl-phosphate buffer solution was added to restore isotonicity. The leukocytes, consisting of ≦84% PMNs, were washed twice and suspended in HBSS. PMNs were adjusted to a final concentration of 10^7 cells per ml.
The intracellular killing assay was carried out as described in Sanchez et al. (Antimicrobial Agents and Chemotherapy 29(4): 634-638 (1986)).
Bovine blood PMNs and bacteria (1:1) were suspended in HBSS containing 10% heterologous bovine serum. The mixture was incubated for 90 minutes at 37° C. in Erlenmeyer flasks with rotational mixing at 110 rpm. Lysostaphin (5 μg/ml) was added to the mixture for the final 15 minutes of incubation. The infected PMNs were washed 3 times by low-speed centrifugation and suspended in HBSS. Cells were pipetted (1 ml) into each well of a six-well cluster dish (Bellco Glass, Inc., Vineland, N.J.) at 5×10^6 PMNs per well. PMNs were allowed to attach and form a monolayer for 10 minutes at 37° C. The supernatant fluid with unattached cells was discarded, and 2 ml of fresh HBSS was added to each well. The rifamycin derivatives to be tested were then added to the wells (one six-well plate per drug). These derivatives were dissolved in dimethylsulfoxide, and then diluted in HBSS to final solvent concentrations of 0.01% (vol/vol) or less.
After overnight incubation (18 to 21 hours) at 37° C. with 1% CO2, lysostaphin (5 μg/ml) was added to each well for 15 min (at 37° C.) to kill extracellular bacteria. The monolayers were washed with HBSS, and the cells were lysed by addition of 1 ml of water to each well. The number of viable bacteria was then estimated by plate counts on brain heart infusion agar. […] The results are shown in Table 2, wherein R is the alkyl group in the rifamycin derivative (1).

[2] = tested on: Staphylococcus aureus 9203; assay: MIC against the strain of the intracellular killing assay; assay type: cell-based
[3] = tested on: S. aureus 30857, a rifampin-resistant isolate; assay: MIC, microbroth dilution, strain 30857; assay type: cell-based, Staphylococcus aureus; conditions: for MIC: strain 30857
Experimental: (§1) Four S. aureus strains were used: S. aureus 30857, a rifampin-resistant isolate: S. aureus 6097, a strain used in the mouse mastitis test and originally from a case of gangrenous bovine mastitis; S. aureus B83-1, derived from the Newbould 305 strain; and S. aureus ATCC 29213, the in vitro control stain recommended by NCCLS.
(§2) All S. aureus strains were maintained on 3 mm glass beads immersed in trypticase soy broth (BBL Microbiology Systems, Cockeysville, Md.) with 10% glycerol and held at −70° C. until revived. Prior to testing, the strains were subcultured on tryptose blood agar base (Difco, Detroit, Mich.) supplemented with 5% sheep blood for 24 hours at 35° C.
(§3) These compounds were dissolved in 95% ethanol, a solution which was then diluted to 10% ethanol with sterile distilled water. Further dilutions were conducted in water.
(§4) MIC (Minimum Inhibitory Concentration) determinations were performed using the microbroth dilution method. (National Committee for Clinical Laboratory Standards, 1990 Approved Standard […]. Methods for dilution antimicrobial susceptibility tests for bacteria that grow aerobically, 3rd edition. National Committee for Clinical Laboratory Standards, Villanova, Pa.) The results are shown in Table 3, wherein R is the alkyl group R in the rifamycin derivative (1).

S. aureus B83-1 [4] = assay: MIC, microbroth dilution, strain B83-1; assay type: cell-based, Staphylococcus aureus
Experimental: as §1, §2, §3, §4

S. aureus ATCC 29213 [5] = assay: MIC, microbroth dilution, strain ATCC 29213; assay type: cell-based, Staphylococcus aureus
Experimental: as §1, §2, §3, §4

[6] = tested on: S. aureus 30857, a rifampin-resistant isolate; assay type: cell-based, Staphylococcus aureus; conditions: strain 30857
Experimental: (§5) The mutation frequency for development of resistance to the rifamycin derivative (1) as compared to rifampin was determined with selected Staphylococcus aureus strains.
as §1, §2, §3
(§6) The mutation frequency for development of resistance to the compounds tested was determined by the following method. A single colony of each strain was removed from the surface of a blood agar plate with a cotton swab, suspended in 5 ml of Mueller-Hinton broth (BBL), and streaked on the entire surface of five Mueller-Hinton agar plates. The plates were incubated overnight under aerobic conditions at 35° C., growth was removed from the agar using a sterile cotton swab, and the bacteria were suspended in 10 ml physiological saline. This bacterial suspension was the inoculum for the mutation frequency determinations. Standard plate counts were performed on the inoculum by performing serial dilutions and plating a 0.1 ml aliquot on the surface of ten Mueller-Hinton agar plates at each concentration. The plates were incubated for 18-24 hours at 35° C. under aerobic conditions and colony counts performed. Mean bacterial counts were calculated for the inoculum with each strain.
(§7) A 0.1 ml aliquot of the inoculum was then used to inoculate the entire surface of ten plates each containing 1, 10, and 100 μg/ml of the test antimicrobial agents. The plates were incubated for 18-24 hours at 35° C. under aerobic conditions and colony counts performed. Mean bacterial counts were calculated for each antimicrobial concentration and the mutation frequency calculated by dividing the number of colonies which grew on the drug containing media by the inoculum size.

S. aureus 6097 = assay: Mutation frequency for resistance, strain 6097; assay type: cell-based, Staphylococcus aureus
Experimental: as §5, §1, §2, §3, §6, §7

S. aureus B83-1 [7] = assay: Mutation frequency for resistance, strain B83-1; assay type: cell-based, Staphylococcus aureus
Experimental: as §5, §1, §2, §3, §6, §7

S. aureus ATCC 29213 [8] = assay: Mutation frequency for resistance, strain ATCC 29213; assay type: cell-based, Staphylococcus aureus
Experimental: as §5, §1, §2, §3, §6, §7

| SMILES | % reduction ([1]; 1X MIC) [%] | CFU/ml ISD (×10^3) ([1]; 1X MIC) | % reduction ([1]; 100X MIC) [%] | CFU/ml ISD (×10^3) ([1]; 100X MIC) | Mutation frequency ([6]; 1 μg/ml) | Mutation frequency ([6]; 10 μg/ml) | Mutation frequency ([6]; 100 μg/ml) | Mutation frequency (S. aureus 6097; 1 μg/ml) | Mutation frequency (S. aureus 6097; 10 μg/ml) | Mutation frequency (S. aureus 6097; 100 μg/ml) | Mutation frequency (S. aureus B83-1 [7]; 1 μg/ml) | Mutation frequency (S. aureus B83-1 [7]; 10 μg/ml) | Mutation frequency (S. aureus B83-1 [7]; 100 μg/ml) | Mutation frequency (S. aureus ATCC 29213 [8]; 1 μg/ml) | Mutation frequency (S. aureus ATCC 29213 [8]; 10 μg/ml) | Mutation frequency (S. aureus ATCC 29213 [8]; 100 μg/ml) | other results |
| --- | --- | --- | --- | --- | --- | --- | --- | --- | --- | --- | --- | --- | --- | --- | --- | --- | --- |
| COC1/C=C/OC2(C)Oc3c(C)c(O)c4c(=O)c(c5oc6cc(N7CCN(C)CC7)cc(O)c6nc-5c4c3C2=O)NC(=O)/C(C)=C\C=C\C(C)C(O)C(C)C(O)C(C)C(OC(C)=O)C1C (centres unmarked) [R = methyl] | 92.0 | 0.3 ± 0.1 CFU/ml (×10^3) | 100 | 0.0 CFU/ml (×10^3) | <1.6 × 10^−10 | <1.6 × 10^−10 | <1.6 × 10^−10 | 4.0 × 10^−8 | <1.8 × 10^−10 | <1.8 × 10^−10 | 1.5 × 10^−8 | <1.8 × 10^−9 | <1.8 × 10^−9 | 2.1 × 10^−9 | <1.1 × 10^−9 | <1.1 × 10^−9 | MIC [2]: ≦0.03 μg/ml; effectiveness against rifampin-resistant strains ([3]; MIC, in words): effective against rifampin-resistant strains; MIC [3]: 500 ng/mL (≈ 556 nM); MIC (S. aureus B83-1 [4]): 0.061 ng/mL (≈ 0.0679 nM); MIC (S. aureus ATCC 29213 [5]): 0.061 ng/mL (≈ 0.0679 nM) |
| CO[C@H]1/C=C/O[C@@]2(C)Oc3c(C)c(O)c4c(O)c(c(/C=N/N5CCN(C)CC5)c(O)c4c3C2=O)NC(=O)/C(C)=C\C=C\[C@H](C)[C@H](O)[C@@H](C)[C@@H](O)[C@@H](C)[C@H](OC(C)=O)[C@@H]1C [Rifampin, reference compound] | 83.0 | 0.6 ± 0.3 CFU/ml (×10^3) | 85.0 | 0.5 ± 0.2 CFU/ml (×10^3) | >1.0 × 10^−7 | >1.0 × 10^−7 | >1.0 × 10^−7 | 1.2 × 10^−8 | 2.0 × 10^−8 | 4.9 × 10^−9 | 3.7 × 10^−8 | 4.5 × 10^−8 | 1.9 × 10^−8 | 2.6 × 10^−8 | 2.5 × 10^−8 | 1.9 × 10^−8 | MIC ([2]; read-out: MIC): ≤ 30 ng/mL; MIC ([3]; Staphylococcus aureus, read-out: MIC): > 4000 ng/mL; MIC (S. aureus B83-1 [4]; Staphylococcus aureus, B831, read-out: MIC): 1.9 ng/mL (≈ 2.31 nM); MIC (S. aureus ATCC 29213 [5]; Staphylococcus aureus, ATCC29213, read-out: MIC): 1.9 ng/mL (≈ 2.31 nM) |
